tested on: SARS-CoV-2; assay: microbe, parasite or virus in culture; type: cell-based; conditions: Severe acute respiratory syndrome coronavirus 2, HeLa-ACE2, 24 h, read-out: EC50, μM (Hela)

Compared with `CC(C)(C)[C@H](NC(=O)C(F)(F)F)C(=O)N1C[C@H]2[C@@H]([C@H]1C(=O)N[C@H](C#N)C[C@@H]1CCCNC1=O)C2(C)C` [Compound 63, (1R,2S,5S)-N-((S)-1-cyano-2-((S)-2-oxopiperidin-3-yl)ethyl)-3-((S)-3,3-dimethyl-2-(2,2,2-trifluoroacetamido)butanoyl)-6,6-dimethyl-3-azabicyclo[3.1.0]hexane-2-carboxamide], `CC(C)(C)[C@H](NC(=O)C(F)(F)F)C(=O)N1C[C@H]2[C@@H]([C@H]1C(=O)N[C@H](C=O)C[C@@H]1CCCNC1=O)C2(C)C` [Compound 132, (1R,2S,5S)-3-((S)-3,3-dimethyl-2-(2,2,2-trifluoroacetamido)butanoyl)-6,6-dimethyl-N-((S)-1-oxo-3-((S)-2-oxopiperidin-3-yl)propan-2-yl)-3-azabicyclo[3.1.0]hexane-2-carboxamide] is higher in EC50: < 0.05 µM for the first, 0.5 to 1 µM for the second.

same assay, conditions: Severe acute respiratory syndrome coronavirus 2; HeLa-ACE2 cells infected with SARS-CoV-2, 24 h, immunofluorescence of infected cells; read-out: EC50, μM (Hela)

First: O=C(Nc1ccccc1F)C(=O)N1CC2(CC2)C[C@H]1C(=O)N[C@@H](C[C@@H]1CCNC1=O)C(=O)CO [Compound 93, (S)-5-(2-((2-fluorophenyl)amino)-2-oxoacetyl)-N-((S)-4-hydroxy-3-oxo-1-((S)-2-oxopyrrolidin-3-yl)butan-2-yl)-5-azaspiro[2.4]heptane-6-carboxamide]
Second: O=C(Nc1ccccc1F)C(=O)N1C[C@@H]2CCC[C@@H]2[C@H]1C(=O)N[C@@H](C[C@@H]1CCNC1=O)C(=O)CO [Compound 30, (1S,3aR,6aS)-2-(2-((2-fluorophenyl)amino)-2-oxoacetyl)-N-((S)-4-hydroxy-3-oxo-1-((S)-2-oxopyrrolidin-3-yl)butan-2-yl)octahydrocyclopenta[c]pyrrole-1-carboxamide]
The EC50 of the first is higher: 0.2 to 0.5 µM for the first, 0.05 to 0.2 µM for the second. The second is the more potent here.

First: CC(C)C[C@H](NC(=O)OCc1cccc(Cl)c1)C(=O)N[C@@H](C[C@@H]1CCNC1=O)C(=O)COC(=O)C(C)C [Compound 120, (S)-3-((S)-2-((((3-chlorobenzyl)oxy)carbonyl)amino)-4-methylpentanamido)-2-oxo-4-((S)-2-oxopyrrolidin-3-yl)butyl isobutyrate]
Second: COc1cccc(NC(=O)C(=O)N[C@@H](CC(C)C)C(=O)N[C@@H](C[C@@H]2CCNC2=O)C(=O)CO)c1 [Compound 9]
The EC50 of the first is higher: > 1 µM for the first, 0.05 to 0.2 µM for the second. The second is the more potent here.

First: CC(C)C[C@H](NC(=O)C(=O)NC1(C)CC1)C(=O)N[C@@H](C[C@@H]1CCCNC1=O)C(=O)CO [Compound 29, N^1-((S)-1-(((S)-4-hydroxy-3-oxo-1-((S)-2-oxopiperidin-3-yl)butan-2-yl)amino)-4-methyl-1-oxopentan-2-yl)-N^2-(1-methylcyclopropyl)oxalamide]
Second: CC1(C[C@H](NC(=O)C(=O)NC(C)(C)C)C(=O)N[C@@H](C[C@@H]2CCCNC2=O)C(=O)CO)CCC1 [Compound 113, N^1-(tert-butyl)-N^2-((S)-1-(((S)-4-hydroxy-3-oxo-1-((S)-2-oxopiperidin-3-yl)butan-2-yl)amino)-3-(1-methylcyclobutyl)-1-oxopropan-2-yl)oxalamide]
The EC50 of the first is higher: > 1 µM for the first, 0.05 to 0.2 µM for the second.

First: COc1cccc(OC)c1NC(=O)C(=O)N[C@@H](CC(C)C)C(=O)N[C@@H](C[C@@H]1CCNC1=O)C(=O)CO [Compound 15, N^1-(2,6-dimethoxyphenyl)-N^2-((S)-1-(((S)-4-hydroxy-3-oxo-1-((S)-2-oxopyrrolidin-3-yl)butan-2-yl)amino)-4-methyl-1-oxopentan-2-yl)oxalamide]
Second: CCc1cccc(CC)c1NC(=O)C(=O)N[C@@H](CC(C)C)C(=O)N[C@@H](C[C@@H]1CCNC1=O)C(=O)CO [Compound 17, N^1-(2,6-diethylphenyl)-N^2-((S)-1-(((S)-4-hydroxy-3-oxo-1-((S)-2-oxopyrrolidin-3-yl)butan-2-yl)amino)-4-methyl-1-oxopentan-2-yl)oxalamide]
The EC50 of the first is higher: > 1 µM for the first, < 0.05 µM for the second. The second is the more potent here.

`CC(C)(C)C[C@H](NC(=O)C(=O)Nc1ccccc1C(C)(C)C)C(=O)N[C@@H](C[C@@H]1CCCNC1=O)C(=O)CO` [Compound 100, N^1-(2-(tert-butyl)phenyl)-N^2-((S)-1-(((S)-4-hydroxy-3-oxo-1-((S)-2-oxopiperidin-3-yl)butan-2-yl)amino)-4,4-dimethyl-1-oxopentan-2-yl)oxalamide] and `CC(C)(C)C[C@H](NC(=O)C(=O)Nc1ccccc1C(F)(F)F)C(=O)N[C@@H](CC1CCCNC1=O)C(=O)CO` (stereo partly drawn) [Compound 96] cannot be ordered by EC50: < 0.05 µM for the first, < 0.05 µM for the second.

First: CC(C)C[C@H](NC(=O)c1cc(-c2ccccn2)on1)C(=O)N[C@H](C=O)C[C@@H]1CCNC1=O [Compound 128, N-((S)-4-methyl-1-oxo-1-(((S)-1-oxo-3-((S)-2-oxopyrrolidin-3-yl)propan-2-yl)amino)pentan-2-yl)-5-(pyridin-2-yl)isoxazole-3-carboxamide]
Second: CC(C)C[C@H](NC(=O)C(=O)NC1CCCCC1)C(=O)N[C@H](C=O)C[C@@H]1CCNC1=O [Compound 42, N^1-cyclohexyl-N^2-((S)-4-methyl-1-oxo-1-(((S)-1-oxo-3-((S)-2-oxopyrrolidin-3-yl)propan-2-yl)amino)pentan-2-yl)oxalamide]
The EC50 of the first is higher: > 1 µM for the first, 0.5 to 1 µM for the second. The second is the more potent here.

First: CC(C)C[C@@H](O)C(=O)N[C@@H](Cc1cccc(F)c1)C(=O)N[C@@H](C[C@@H]1CCCNC1=O)C(=O)CO [Compound 134, (R)-N-((S)-3-(3-fluorophenyl)-1-(((S)-4-hydroxy-3-oxo-1-((S)-2-oxopiperidin-3-yl)butan-2-yl)amino)-1-oxopropan-2-yl)-2-hydroxy-4-methylpentanamide]
Second: CC(C)C[C@H](NC(=O)C(=O)Nc1ccccc1F)C(=O)N[C@@H](C[C@@H]1CCCNC1=O)C(=O)CO [Compound 21, N^1-(2-fluorophenyl)-N^2-((S)-1-(((S)-4-hydroxy-3-oxo-1-((S)-2-oxopiperidin-3-yl)butan-2-yl)amino)-4-methyl-1-oxopentan-2-yl)oxalamide]
The EC50 of the first is higher: > 1 µM for the first, 0.05 to 0.2 µM for the second.

Compared with `COc1cccc2[nH]c(C(=O)N[C@@H](CC(C)C)C(=O)N[C@@H](C[C@@H]3CCNC3=O)C(=O)COC(=O)C3CCN(C4CCCCC4)CC3)cc12` [Compound 123, (S)-3-((S)-2-(4-methoxy-1H-indole-2-carboxamido)-4-methylpentanamido)-2-oxo-4-((S)-2-oxopyrrolidin-3-yl)butyl 1-cyclohexylpiperidine-4-carboxylate], `CC(C)C[C@H](NC(=O)C(=O)Nc1ccccc1F)C(=O)N[C@@H](C[C@@H]1CCNC1=O)C(=O)COC(=O)C1CCN(C2CCCCC2)CC1` [Compound 6, (S)-3-((S)-2-(2-((2-fluorophenyl)amino)-2-oxoacetamido)-4-methylpentanamido)-2-oxo-4-((S)-2-oxopyrrolidin-3-yl)butyl 1-cyclohexylpiperidine-4-carboxylate] is lower in EC50: 0.5 to 1 µM for the first, 0.05 to 0.2 µM for the second. The second is the more potent here.

First: CC(C)(C)NC(=O)C(=O)N1C[C@H]2[C@@H]([C@H]1C(=O)N[C@H](C=O)C[C@@H]1CCCNC1=O)C2(C)C [Compound 46, (1R,2S,5S)-3-(2-(tert-butylamino)-2-oxoacetyl)-6,6-dimethyl-N-((S)-1-oxo-3-((S)-2-oxopiperidin-3-yl)propan-2-yl)-3-azabicyclo[3.1.0]hexane-2-carboxamide]
Second: CC(C)(C)NC(=O)C(=O)N1C[C@@H]2CCC[C@@H]2[C@H]1C(=O)N[C@@H](C[C@@H]1CCCNC1=O)C(=O)CO [Compound 32, (1S,3aR,6aS)-2-(2-(tert-butylamino)-2-oxoacetyl)-N-((S)-4-hydroxy-3-oxo-1-((S)-2-oxopiperidin-3-yl)butan-2-yl)octahydrocyclopenta[c]pyrrole-1-carboxamide]
The EC50 of the first is higher: > 1 µM for the first, 0.5 to 1 µM for the second. The second is the more potent here.

Compared with `O=C(N[C@@H](CC1CC1)C(=O)N[C@@H](C[C@@H]1CCCNC1=O)C(=O)CO)C(=O)NC12CCC(F)(CC1)CC2` [Compound 110, N^1-((S)-3-cyclopropyl-1-(((S)-4-hydroxy-3-oxo-1-((S)-2-oxopiperidin-3-yl)butan-2-yl)amino)-1-oxopropan-2-yl)-N^2-(4-fluorobicyclo[2.2.2]octan-1-yl)oxalamide], `O=C(Nc1ccccc1F)C(=O)N[C@@H](CC1CCCCC1)C(=O)N[C@H](C[C@@H]1CCCNC1=O)C(=O)CO` [Compound 25, N^1-((S)-3-cyclohexyl-1-(((R)-4-hydroxy-3-oxo-1-((S)-2-oxopiperidin-3-yl)butan-2-yl)amino)-1-oxopropan-2-yl)-N^2-(2-fluorophenyl)oxalamide] is lower in EC50: > 1 µM for the first, 0.05 to 0.2 µM for the second.

First: CCc1cccc(CC)c1NC(=O)C(=O)N[C@@H](CC(C)C)C(=O)N[C@@H](C[C@@H]1CCCNC1=O)C(=O)CO [Compound 28, N^1-(2,6-diethylphenyl)-N^2-((S)-1-(((S)-4-hydroxy-3-oxo-1-((S)-2-oxopiperidin-3-yl)butan-2-yl)amino)-4-methyl-1-oxopentan-2-yl)oxalamide]
Second: CC(C)C[C@H](NC(=O)C(=O)Nc1ccccc1F)C(=O)N[C@@H](C[C@@H]1CCCCNC1=O)C(=O)CO [Compound 34, N^1-(2-fluorophenyl)-N^2-((S)-1-(((S)-4-hydroxy-3-oxo-1-((S)-2-oxoazepan-3-yl)butan-2-yl)amino)-4-methyl-1-oxopentan-2-yl)oxalamide]
The EC50 of the first is lower: < 0.05 µM for the first, > 1 µM for the second. The first is the more potent here.

First: CCCCCCC(=O)OCC(=O)[C@H](C[C@@H]1CCNC1=O)NC(=O)[C@H](CC(C)C)NC(=O)c1cc2c(OC)cccc2[nH]1 [Compound 119, (S)-3-((S)-2-(4-methoxy-1H-indole-2-carboxamido)-4-methylpentanamido)-2-oxo-4-((S)-2-oxopyrrolidin-3-yl)butyl heptanoate]
Second: CC(C)C[C@H](NC(=O)C(=O)Nc1ccccc1F)C(=O)N[C@@H](C[C@@H]1CCNC1=O)C(=O)COC(=O)C1CCC(N2CCCCC2)CC1 (stereo partly drawn) [Compound 5, (S)-3-((S)-2-(2-((2-fluorophenyl)amino)-2-oxoacetamido)-4-methylpentanamido)-2-oxo-4-((S)-2-oxopyrrolidin-3-yl)butyl 4-(piperidin-1-yl)cyclohexane-1-carboxylate]
The EC50 of the first is lower: 0.05 to 0.2 µM for the first, 0.2 to 0.5 µM for the second. The first is the more potent here.

`Cc1ccccc1NC(=O)C(=O)N[C@@H](Cc1ccccc1F)C(=O)N[C@@H](C[C@@H]1CCNC1=O)C(=O)CO` [Compound 20, N^1-((S)-3-(2-fluorophenyl)-1-(((S)-4-hydroxy-3-oxo-1-((S)-2-oxopyrrolidin-3-yl)butan-2-yl)amino)-1-oxopropan-2-yl)-N^2-(o-tolyl)oxalamide] was tested, and the EC50 was > 1 µM.

From patent publication US20230033285A1, “Protease Inhibitors for Treatment of Coronavirus Infections” (The Scripps Research Institute, priority 2021, published 2023)
